Test results: patent US20250368628A1, “METHODS AND COMPOUNDS FOR MODULATING INHERITED GENETIC DISEASES” (Design Therapeutics, Inc., priority 2022, published 2025)
pEC50: −log10 of the molar value. Read-outs that look alike come from different tables or passages of the source.

Legend:
[1] = system: F35T cells; test: Foci reduction in FECD (CAG10-Cy3 FISH, foci per nucleus); assay type: cell-based
Protocol: F35T cells were cultured in media containing Opti-MEM (ThermoFisher) supplemented with 8% FBS, 20 μg/mL ascorbic acid, […] CaCl2, 0.08% chondroitin sulfate, 1×Pen/Strep, 100 μg/mL bovine pituitary extract, 5 ng/mL epidermal growth factor, and 20 ng/mL nerve growth factor. Throughout the culture, cells were maintained in an incubator at 37° C. and 5% CO2. Media was refreshed every 48 hours. Once cells reached adequate confluency, they were harvested and seeded in 96 well plates with a density of 5000 cells per well in 200 μL of the supplemented Opti-MEM media. Cells were returned to the incubator and left to settle for 24 hours at 37° C. and 5% CO2. Cells were then treated in 8-point dose response with compounds or negative controls and incubated for 48 hours at 37° C. and 5% CO2. After treatment, cells were fixed with 4% PFA for 20 minutes at room temperature, followed by permeabilization with 70% ethanol. Cells were incubated at −20° C. for a minimum of 1 hour and maximum of 72 hours, after which the ethanol was removed, and cells were washed with PBS. Cells were rehydrated with 30% formamide and 2×SSC buffer for 10 minutes at room temperature. Cells were then incubated overnight at 37° C. in the hybridization solution containing 30% formamide, 2×SSC, 55 mg/mL dextran sulfate, 2.75 mg/mL bovine serum albumin, 0.2 μg/mL Herring sperm DNA, 1% vanadyl-ribonucleoside complex, and 0.05% 10 μM CAG10-Cy3 probe. Cells were washed twice with 30% formamide in 2×SSC, incubating the cells while shaking with the second wash at 37° C. and 200 rpm for 60 minutes. Cells were stained with 5 mg/mL DAPI 1:1000 in PBS, incubating at room temperature for 5 minutes. Cells were then washed with PBS and sealed with adhesive foil, with each well containing a final volume of 150 μL PBS. Cells were imaged on a Cytation 5 and analyzed on a foci per nucleus basis.

[2] = system: Myotonic Dystrophy 1 affected patient fibroblasts (Coriel GM04602; 1600 CTG repeats); test: DM1 foci reduction assay (EC50 assay; CAG10-Cy3 FISH, foci per nucleus); assay type: cell-based
Procedure, shortened: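 GM04602 DM1 patient fibroblasts (1600 CTG repeats) seeded 24 h, then treated 48 h at 37 °C with an 8-point 1:3 dose series from 3 μM. Cells PFA-fixed, ethanol-permeabilized and hybridized overnight with 5 nM CAG10-Cy3 probe, DAPI counterstained. Imaged at 20×, 4 fields per well, as average foci per nucleus.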

[3] = F35T cells, 48 h treatment, foci per nucleus; read-out: FECD EC50, 48 h
[4] = Homo sapiens, Fibroblast; DM1 patient fibroblasts, 48 h treatment, foci per nucleus; read-out: DM1 EC50, 48 h
[5] = F35T cells, foci per nucleus, 48 h treatment; read-out: FECD EC50, 48 h
[6] = Homo sapiens, Fibroblast; DM1 patient fibroblasts, foci per nucleus, 48 h treatment; read-out: DM1 EC50, 48 h

Row | SMILES | pEC50 [1, 3] | pEC50 [2, 4] | pEC50 [1, 5] | pEC50 [2, 6]
1 | Cn1cc(NC(=O)c2nc(NC(=O)CCNC(=O)c3cc(NC(=O)c4nccn4C)cn3C)cn2C)cc1C(=O)NCCCC(=O)Nc1cn(C)c(C(=O)NCCC(=O)Nc2cc(C(=O)Nc3cn(C)c(C(=O)NCCC(=O)NCCOCCN4CCC(C#CC#CC5CCNCC5)CC4)n3)n(C)c2)n1 [Compound B-20] | 6.00 to 6.30 | 6.00 to 6.30 |  | 
2 | CC(=O)NCCOCCOCCOCCOCCOCCOCCOCCOCCOCCOCCNC(=O)CCNC(=O)c1nc(NC(=O)c2cc(NC(=O)CCNC(=O)c3nc(NC(=O)CCCNC(=O)c4cc(NC(=O)c5nc(NC(=O)CCNC(=O)c6cc(NC(C)c7nccn7C)cn6C)cn5C)cn4C)cn3C)cn2C)cn1C (centres unmarked) [Compound B-82] | 6.30 to 7.00 | 6.30 to 7.00 |  | 
3 | Cn1cc(NC(=O)c2nc(NC(=O)CCNC(=O)c3cc(NC(=O)c4nccn4C)cn3C)cn2C)cc1C(=O)NCCCC(=O)Nc1cn(C)c(C(=O)NCCC(=O)Nc2cc(C(=O)Nc3cn(C)c(C(=O)NCCC(=O)NCCCO)n3)n(C)c2)n1 [Compound B-52] | > 7.00 | > 7.00 |  | 
4 | C=C(NCCC(=O)Nc1cc(C(=O)Nc2cn(C)c(C(=O)NCCC(=O)NCCC)n2)n(C)c1)c1nc(NC(=O)CCCNC(=O)c2cc(NC(=O)c3nc(NC(=O)CCNC(=O)c4cc(NC(=O)c5nccn5C)cn4C)cn3C)cn2CCCNC(=O)c2ccccc2)cn1C [Compound B-399] | > 7.00 | 6.00 to 6.30 |  | 
5 | CCCCn1cc(NC(=O)c2nc(NC(=O)CCNC(=O)c3cc(NC(=O)c4nccn4C)cn3C)cn2C)cc1C(=O)NCC[C@@H](N)C(=O)Nc1cn(C)c(C(=O)NCCC(=O)Nc2cc(C(=O)Nc3cn(C)c(C(=O)NCCC(=O)N4CCN(C)CC4)n3)n(C)c2)n1 [Compound B-408] | 6.30 to 7.00 | 6.30 to 7.00 |  | 
6 | CCCNC(=O)c1nc(NC(=O)c2cc(NC(=O)CCNC(=O)c3nc(NC(=O)CC4(CNC(=O)c5cc(NC(=O)c6nc(NC(=O)CCNC(=O)c7cc(NC(=O)c8nccn8C)cn7C)cn6C)cn5C)CNC4)cn3C)cn2C)cn1C [Compound B-439] |  |  | 6.30 to 7.00 | 6.30 to 7.00
7 | Cn1cc(NC(=O)c2nc(NC(=O)CCNC(=O)c3cc(NC(=O)c4nccn4C)cn3C)cn2C)cc1C(=O)NCCCC(=O)Nc1cn(C)c(C(=O)NCCC(=O)Nc2cc(C(=O)Nc3cn(C)c(C(=O)NCCC(=O)NCCCCCN4CCC(C#CC#CC5CCN(C(=O)c6ccc(C(C)(C)C)cc6)CC5)CC4)n3)n(C)c2)n1 [Compound B-177] | 6.30 to 7.00 | 6.00 to 6.30 |  | 
8 | CC(=O)NCCn1cc(NC(=O)c2nc(NC(=O)CCNC(=O)c3cc(NC(=O)c4nccn4C)cn3C)cn2C)cc1C(=O)NCCCC(=O)Nc1cn(C)c(C(=O)NCCC(=O)Nc2cc(C(=O)Nc3cn(C)c(C(=O)NCCC(=O)N4CCC(C#CC#CC5CCNCC5)CC4)n3)n(C)c2)n1 [Compound B-270] | 6.00 to 6.30 | < 6.00 |  | 
9 | CCCNC(=O)CCNC(=O)c1nc(NC(=O)CCNC(=O)c2cc(NC(=O)c3nc(NC(=O)CCCNC(=O)c4cc(NC(=O)c5nc(NC(=O)CCNC(=O)c6cc(NC(C)c7nccn7C)cn6C)cn5C)cn4C)cn3C)cn2C)cn1C (centres unmarked) [Compound B-74] | 6.00 to 6.30 | < 6.00 |  | 
10 | Cn1cc(NC(=O)c2nc(NC(=O)CCNC(=O)c3cc(NC(=O)c4nccn4C)cn3C)cn2C)cc1C(=O)NCCCC(=O)Nc1cn(C)c(C(=O)NCCC(=O)Nc2cc(C(=O)Nc3cn(C)c(C(=O)NCCC(=O)N4CCC(C5CN(C(=O)OC(C)(C)C)C5)CC4)n3)n(C)c2)n1 [Compound B-193] | > 7.00 | > 7.00 |  | 
11 | COC(=O)c1cccc(C#CCCCN(C)CCCNC(=O)c2nc(NC(=O)c3cc(NC(=O)CCNC(=O)c4nc(NC(=O)CCCNC(=O)c5cc(NC(=O)c6nc(NC(=O)CCNC(=O)c7cc(NC(=O)c8nccn8C)cn7C)cn6C)cn5C)cn4C)cn3C)cn2C)c1 [Compound B-341] | > 7.00 | > 7.00 |  | 
12 | CCCNC(=O)c1cc(NC(=O)c2nc(NC(=O)CCNC(=O)c3cc(NC(=O)c4nc(NC(=O)CCCNC(=O)c5cc(NC(=O)c6nc(NC(=O)CCNC(=O)c7cc(NC(=O)c8nccn8C)cn7C)cn6C)cn5C)cn4C)cn3C)cn2C)cn1C [Compound B-9] | > 7.00 | < 6.00 |  | 
13 | Cn1cc(NC(=O)c2nc(NC(=O)CCNC(=O)c3cc(NC(=O)c4nccn4C)cn3C)cn2C)cc1C(=O)NCCCC(=O)Nc1cn(C)c(C(=O)NCCC(=O)Nc2cc(C(=O)Nc3cn(C)c(C(=O)NCCCN(CC#Cc4cccc(C(=O)O)c4)CCCN)n3)n(C)c2)n1 [Compound B-383] | > 7.00 | < 6.00 |  | 
14 | CCCCCCN1CCC(C#CC#CC2CCN(CCOCCOCCOCCNC(=O)CCNC(=O)c3nc(NC(=O)c4cc(NC(=O)CCNC(=O)c5nc(NC(=O)CCCNC(=O)c6cc(NC(=O)c7nc(NC(=O)CCNC(=O)c8cc(NC(=O)c9nccn9C)cn8C)cn7C)cn6C)cn5C)cn4C)cn3C)CC2)CC1 [Compound B-172] | 6.30 to 7.00 | > 7.00 |  | 
15 | CC(=O)N1CCN(CC2CCN(C(=O)CCNC(=O)c3nc(NC(=O)c4cc(NC(=O)CCNC(=O)c5nc(NC(=O)CCCNC(=O)c6cc(NC(=O)c7nc(NC(=O)CCNC(=O)c8cc(NC(=O)c9nccn9C)cn8C)cn7C)cn6C)cn5C)cn4C)cn3C)CC2)CC1 [Compound B-128] | > 7.00 | 6.30 to 7.00 |  | 
16 | CCCCn1cc(NC(=O)c2nc(NC(=O)CCNC(=O)c3cc(NC(=O)c4nccn4C)cn3C)cn2C)cc1C(=O)NCCCC(=O)Nc1cn(C)c(C(=O)NCCC(=O)Nc2cc(C(=O)Nc3cn(C)c(C(=O)NCCC(=O)N4CCN(C)CC4)n3)n(C)c2)n1 [Compound B-426] |  |  | 6.30 to 7.00 | 6.30 to 7.00
17 | Cn1cc(NC(=O)c2nc(NC(=O)CCNC(=O)c3cc(NC(=O)c4nccn4C)cn3C)cn2C)cc1C(=O)NCCCC(=O)Nc1cn(C)c(C(=O)NCCC(=O)Nc2cc(C(=O)Nc3cn(C)c(C(=O)NCCC(=O)NCCOCCOCCOCCOCCN4CCN(C5CCNCC5)CC4)n3)n(C)c2)n1 [Compound B-22] | 6.30 to 7.00 | 6.30 to 7.00 |  | 
18 | CCOC(=O)CCNC(=O)c1nc(NC(=O)c2cc(NC(=O)CCNC(=O)c3nc(NC(=O)[C@@H](CCNC(=O)c4cc(NC(=O)c5nc(NC(=O)CCNC(=O)c6cc(NC(=O)c7nccn7C)cn6C)cn5C)cn4C)NC(C)=O)cn3C)cn2C)cn1C [Compound B-4] | 6.30 to 7.00 | 6.30 to 7.00 |  | 
19 | CCOC(=O)c1nc(NC(=O)c2cc(NC(=O)CCNC(=O)c3nc(NC(=O)CCCNC(=O)c4cc(NC(=O)c5nc(NC(=O)CCNC(=O)c6cc(NC(=O)c7nccn7C)cn6C)cn5C)cn4CCCCCCn4cc(COCCOCCOCCOC)nn4)cn3C)cn2C)cn1C [Compound B-374] | < 6.00 | < 6.00 |  | 
20 | CN(C)CCCCNC(=O)c1nc(NC(=O)c2cc(NC(=O)CCNC(=O)c3nc(NC(=O)[C@H](N)CCNC(=O)c4cc(NC(=O)c5nc(NC(=O)CCNC(=O)c6cc(NC(=O)c7nccn7C)cn6C)cn5C)cn4C)cn3C)cn2C)cn1C [Compound B-410] |  |  | < 6.00 | 6.00 to 6.30
21 | Cn1cc(NC(=O)c2nc(NC(=O)CCNC(=O)c3cc(NC(=O)c4nccn4C)cn3C)cn2C)cc1C(=O)NCCCC(=O)Nc1cn(C)c(C(=O)NCCC(=O)Nc2cc(C(=O)Nc3cn(C)c(C(=O)NCCCCCCCN)n3)n(C)c2)n1 [Compound B-337] | > 7.00 | 6.30 to 7.00 |  | 
22 | CC(=O)N1CCC(C#CC#CC2CCN(CCCNC(=O)c3nc(NC(=O)c4cc(NC(=O)CCNC(=O)c5nc(NC(=O)CCCNC(=O)c6cc(NC(=O)c7nc(NC(=O)CCNC(=O)c8cc(NC(=O)c9nccn9C)cn8C)cn7C)cn6C)cn5C)cn4C)cn3C)CC2)CC1 [Compound B-251] | > 7.00 | > 7.00 |  | 
23 | Cn1cc(NC(=O)c2nc(NC(=O)CCNC(=O)c3cc(NC(=O)c4nccn4C)cn3C)cn2C)cc1C(=O)NCCCC(=O)Nc1cn(C)c(C(=O)NCCC(=O)Nc2cc(C(=O)Nc3cn(C)c(C(=O)NCCCNCC#Cc4ccccc4)n3)n(C)c2)n1 [Compound B-247] | > 7.00 | > 7.00 |  | 
24 | CN(CCCNC(=O)c1cccc(C(=O)OC(C)(C)C)c1)CCCNC(=O)c1cc(NC(=O)CCNC(=O)c2nc(NC(=O)CCCNC(=O)c3cc(NC(=O)c4nc(NC(=O)CCNC(=O)c5cc(NC(=O)c6nccn6C)cn5C)cn4C)cn3CCCCCCN=[N+]=[N-])cn2C)cn1C [Compound B-359] | < 6.00 | < 6.00 |  | 
25 | Cn1cc(NC(=O)c2nc(NC(=O)CCNC(=O)c3cc(NC(=O)c4nccn4C)cn3C)cn2C)cc1C(=O)NCCCC(=O)Nc1cn(C)c(C(=O)NCCC(=O)Nc2cc(C(=O)Nc3cn(C)c(C(=O)NCCC(=O)NCCOCCOCCOc4ccc(N)cc4)n3)n(C)c2)n1 [Compound B-14] | 6.30 to 7.00 | 6.30 to 7.00 |  | 
